Experimental data published in publication PMC7794376 (Nature Communications, 2021).
In brackets after ≈: the same amount, converted by molar mass. Several values for one entry are separate records, joined by “and”; a condition that tells them apart may be missing. Equal entries are not always repeated. Where two headings read alike, the source gives them in different places.

Columns and labels:
[1] = biological target: human CoaB (HCoaB) (Homo sapiens, UniProt Q9HAB8); assay: EnzChek pyrophosphate assay, HCoaB; assay type: biochemical; details: replicates R1-R3; for Activity: slope of absorbance at 360 nm vs time (s)
[2] = biological target: MsmCoaBC (Mycolicibacterium smegmatis, UniProt A0QWT2); assay: EnzChek pyrophosphate assay, CoaB activity of MsmCoaBC; assay type: biochemical, Mycobacterium smegmatis
Method: The commercially available EnzChek pyrophosphate assay kit (E-6645) (Life Technologies) was used for this assay. […] In the assays with HCoaB an enzyme concentration of 1 µM was used instead. […] Assays were performed on either a CLARIOstar or PHERAstar microplate reader (BMG Labtech) in 96-well plates (Greiner). A substrate mixture containing the substrates and the inhibitor was pre-incubated at 25 °C for 10 min. An enzyme solution was prepared and separately pre-incubated at 25 °C for 10 min. The reaction was initiated by the addition of the substrates to the solution containing the enzyme to a final volume of 75 µL. Enzymatic activity was monitored by following the absorbance at 360 nm for 30 min (100 cycles/20 s each cycle) and only the steady-state region of the assay was used for data analysis. Assays were performed in triplicates, including a negative control (lacking PPA) and a positive control (lacking inhibitor).

[3] = biological target: T1, MtbCoaBC (Mycobacterium tuberculosis, UniProt P9WNZ1); assay: High-throughput end-point pyrophosphate quantification assay (Biomol Green); assay type: biochemical; details: MtbCoaB activity; end-point, 2 µM CTP, 40 µM L-cysteine, 30 µM PPA; read-out: IC50 biomol green assay
[4] = biological target: T1, MtbCoaBC; assay: Competition assays, first half of CoaB reaction (EnzChek, variable CTP or PPA); assay type: biochemical; details: in words
[5] = biological target: T1, MtbCoaBC; assay: CMP quantification assay (UPLC), second half of CoaB reaction, variable L-cysteine; assay type: biochemical; details: for CMP formation rate, uM CMP/uM protein.s-1: MtbCoaBC 32 nM, replicates R1-R3
[6] = test system: M. tuberculosis H37Rv; assay: MIC determination in different media; assay type: cell-based; details: Mycobacterium tuberculosis, read-out: Minimum inhibitory concentration (MIC)
[7] = test system: M. tuberculosis coaBC Tet-OFF conditional knockdown; assay type: cell-based, Mycobacterium tuberculosis; details: GAST/Fe minimal media
[8] = 50 uM 1b, relative to average DMSO CT
[9] = 100 uM 1b, relative to average DMSO CT
[10] = MsmCoaBC, 1b at concentration 1 (log 0; unit not given)
[11] = MsmCoaBC, 1b at concentration 2 (log 0.30103; unit not given)
[12] = MsmCoaBC, 0.015625 uM 1b, relative to average DMSO CT, replicates R1-R3
[13] = MsmCoaBC, 0.015625 uM 1b, replicates R1-R3
[14] = MsmCoaBC, 0.03125 uM 1b, relative to average DMSO CT, replicates R1-R3
[15] = MsmCoaBC, 0.03125 uM 1b, replicates R1-R3
[16] = MsmCoaBC, 0.0625 uM 1b, relative to average DMSO CT, replicates R1-R3
[17] = MsmCoaBC, 0.0625 uM 1b, replicates R1-R3
[18] = MsmCoaBC, 0.25 uM 1b, relative to average DMSO CT, replicates R1-R3
[19] = MsmCoaBC, 0.25 uM 1b, replicates R1-R3
[20] = MsmCoaBC, 0.5 uM 1b, replicates R1-R3

T1 sequence (P9WNZ1 whole entry): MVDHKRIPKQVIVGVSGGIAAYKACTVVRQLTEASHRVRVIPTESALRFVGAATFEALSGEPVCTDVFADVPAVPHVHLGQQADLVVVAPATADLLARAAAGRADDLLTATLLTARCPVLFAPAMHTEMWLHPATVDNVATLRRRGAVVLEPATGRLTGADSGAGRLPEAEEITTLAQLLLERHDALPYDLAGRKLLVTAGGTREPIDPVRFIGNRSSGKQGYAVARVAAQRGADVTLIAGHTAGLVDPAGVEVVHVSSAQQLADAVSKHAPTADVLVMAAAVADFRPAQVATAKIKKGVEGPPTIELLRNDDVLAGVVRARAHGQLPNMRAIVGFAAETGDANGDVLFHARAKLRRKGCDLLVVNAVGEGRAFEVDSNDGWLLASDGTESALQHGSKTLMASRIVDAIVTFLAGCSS
Chain of human CoaB (HCoaB) (Q9HAB8 whole entry): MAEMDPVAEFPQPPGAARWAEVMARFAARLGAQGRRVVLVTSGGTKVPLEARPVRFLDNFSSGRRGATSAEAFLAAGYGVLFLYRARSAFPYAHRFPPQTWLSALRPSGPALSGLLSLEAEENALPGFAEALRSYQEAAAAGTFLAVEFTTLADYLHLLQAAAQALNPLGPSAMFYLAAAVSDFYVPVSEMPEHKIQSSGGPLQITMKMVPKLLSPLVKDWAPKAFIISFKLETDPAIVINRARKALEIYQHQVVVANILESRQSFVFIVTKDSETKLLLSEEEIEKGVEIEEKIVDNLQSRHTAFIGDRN
Chain of MsmCoaBC (A0QWT2 whole entry): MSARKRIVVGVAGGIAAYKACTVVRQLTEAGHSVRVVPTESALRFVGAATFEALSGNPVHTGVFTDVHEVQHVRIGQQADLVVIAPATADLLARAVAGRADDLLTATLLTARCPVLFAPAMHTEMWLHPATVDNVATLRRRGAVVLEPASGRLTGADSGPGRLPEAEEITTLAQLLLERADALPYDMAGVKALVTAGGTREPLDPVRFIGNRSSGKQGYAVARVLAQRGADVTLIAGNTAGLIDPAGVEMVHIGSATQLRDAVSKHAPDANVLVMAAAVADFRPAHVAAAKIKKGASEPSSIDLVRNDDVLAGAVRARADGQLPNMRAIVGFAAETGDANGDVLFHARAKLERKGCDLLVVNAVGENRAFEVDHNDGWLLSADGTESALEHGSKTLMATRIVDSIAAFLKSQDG

For `O=C(c1ccc(O)cc1)c1ccc(O)c(O)c1O` [compound 1b], the inhibition at 25 µM ([1]; 25 uM 1b) was 17.3%, the Activity ([1]; 25 uM 1b) was 0.0001127 and 0.0001145 and 0.0001146 and the Activity % [1, 8] was 63.96% and 63.87%. The activity at 50 µM [1, 8] was 75.6%, the Inhibition % ([1]; 50 uM 1b) was 36.13% and 24.38% and the inhibition at 50 µM ([1]; 50 uM 1b) was 36%. The Activity ([1]; 50 uM 1b) was 0.0001047 and 0.000088534 and 0.000088398, the Activity % [1, 9] was 56.11% and 53.46% and the activity at 100 µM [1, 9] was 60.5%. The Inhibition % ([1]; 100 uM 1b) was 46.54% and 39.47%, the inhibition at 100 µM ([1]; 100 uM 1b) was 43.9% and the Activity ([1]; 100 uM 1b) was 0.000083783 and 0.000077656 and 0.000074000. For the same molecule, the Activity ([1]; 200 uM 1b, compound interference at 200uM makes the assay unreliable) was -0.000004063 and 0.000002127 and -0.000001796, the IC50 [2] was 260 ± 20 nM and the “inhibition, replicates 1-3” value [2, 10] was 86.05 and 84.82 and 84.29. The “reaction rate (slope of absorbance at 360 nm versus time), replicates 1-3” value [2, 10] was 0.000051231 and 0.000045511 and 0.000049507, the “remaining activity relative to control, replicates 1-3” value [2, 10] was 15.71 and 13.95 and 15.18 and the “inhibition, replicates 1-3” value [2, 11] was 94.07. For the same molecule, the “reaction rate (slope of absorbance at 360 nm versus time), replicates 1-3” value [2, 11] was -0.000000851 and -0.000003095 and 0.000019348, the “remaining activity relative to control, replicates 1-3” value [2, 11] was -0.2608 and -0.9489 and 5.932 and the Activity % [2, 12] was 96.69% and 95.33%. For the same molecule, the activity at 0.015625 µM [2, 12] was 98.6%, the “Activity (slope of absorbance at 360 nm vs time)” value [2, 13] was 0.0003217 and 0.0003154 and 0.0003109 and the Inhibition % [2, 13] was 3.31% and 4.67% and 1.38%. The Activity % [2, 14] was 95.46% and 96.92%, the activity at 0.03125 µM [2, 14] was 93.2% and the “Activity (slope of absorbance at 360 nm vs time)” value [2, 15] was 0.0003041 and 0.0003114 and 0.0003161. For the same molecule, the Inhibition % [2, 15] was 4.54% and 3.08% and 6.75%, the Activity % [2, 16] was 92.06% and 92.26% and the activity at 0.0625 µM [2, 16] was 85.7%. For the same molecule, the “Activity (slope of absorbance at 360 nm vs time)” value [2, 17] was 0.0002796 and 0.0003003 and 0.0003009, the Inhibition % [2, 17] was 7.74% and 14.27% and the inhibition at 0.0625 µM [2, 17] was 7.94%. For the same molecule, the Activity % [2, 18] was 48.31% and 55.06%, the activity at 0.25 µM [2, 18] was 46% and the “Activity (slope of absorbance at 360 nm vs time)” value [2, 19] was 0.0001501 and 0.0001576 and 0.0001796. The Inhibition % [2, 19] was 44.94% and 53.97%, the inhibition at 0.25 µM [2, 19] was 51.7% and the Activity % ([2]; MsmCoaBC, 0.5 uM 1b, relative to average DMSO CT, replicates R1-R3) was 12.28% and 18.89% and 25.96%. The “Activity (slope of absorbance at 360 nm vs time)” value [2, 20] was 0.000040045 and 0.000061602 and 0.000084683, the Inhibition % [2, 20] was 74.04% and 87.72% and the inhibition at 0.5 µM [2, 20] was 81.1%. For the same molecule, the IC50 [3] was 300 nM, the mode of inhibition ([4]; relative to CTP) was “uncompetitive inhibition” and the mode of inhibition ([4]; relative to PPA) was “uncompetitive inhibition”. For the same molecule, the “CMP formation rate, uM CMP/uM protein.s-1” value (from here on “CMP formation rate”) ([5]; 0.0625 uM 1b, 31.25 uM L-cysteine) was 0.1694 uM CMP/uM protein.s-1 and 0.1962 uM CMP/uM protein.s-1 and 0.1676 uM CMP/uM protein.s-1, the “CMP formation rate” value ([5]; 0.0625 uM 1b, 62.5 uM L-cysteine) was 0.2113 uM CMP/uM protein.s-1 and 0.2325 uM CMP/uM protein.s-1 and 0.2281 uM CMP/uM protein.s-1 and the “CMP formation rate” value ([5]; 0.0625 uM 1b, 250 uM L-cysteine) was 0.2822 uM CMP/uM protein.s-1 and 0.2759 uM CMP/uM protein.s-1 and 0.2797 uM CMP/uM protein.s-1. For the same molecule, the “CMP formation rate” value ([5]; 0.0625 uM 1b, 500 uM L-cysteine) was 0.3148 uM CMP/uM protein.s-1 and 0.3211 uM CMP/uM protein.s-1 and 0.3277 uM CMP/uM protein.s-1, the “CMP formation rate” value ([5]; 0.250 uM 1b, 31.25 uM L-cysteine) was 0.1192 uM CMP/uM protein.s-1 and 0.1053 uM CMP/uM protein.s-1 and 0.1262 uM CMP/uM protein.s-1 and the “CMP formation rate” value ([5]; 0.250 uM 1b, 62.5 uM L-cysteine) was 0.1329 uM CMP/uM protein.s-1 and 0.1247 uM CMP/uM protein.s-1 and 0.1395 uM CMP/uM protein.s-1. The “CMP formation rate” value ([5]; 0.250 uM 1b, 250 uM L-cysteine) was 0.1577 uM CMP/uM protein.s-1 and 0.155 uM CMP/uM protein.s-1 and 0.1593 uM CMP/uM protein.s-1, the “CMP formation rate” value ([5]; 0.250 uM 1b, 500 uM L-cysteine) was 0.1688 uM CMP/uM protein.s-1 and 0.1557 uM CMP/uM protein.s-1 and 0.1625 uM CMP/uM protein.s-1 and the mode of inhibition ([5]; relative to L-cysteine, in words) was “uncompetitive inhibition”. The MIC ([6]; 7H9/ADC/Glycerol) was > 250 µM, the MIC ([6]; 7H9/Cholesterol/Tyloxapol) was > 250 µM and the MIC ([6]; GAST/Fe) was 125 µM (≈ 30.8 µg/mL). The “sensitisation on incremental silencing of CoaBC” value [7] was “did not sensitise M. tuberculosis further”.
